Test results reported in patent US12240862B2, “Inhibitors of peptidylarginine deiminases” (Gilead Sciences, Inc., priority 2020, dated 2025).
pIC50: −log10 of the molar value.

Target: T1, human PAD4 (Homo sapiens, UniProt Q9UM07)
T1 construct: human PAD4 (NM_012387), A2P663, was PCR amplified; His-SUMO (N, cleaved yes); made in house; host or cells: E. coli BL21(DE3)
Experiment: In vitro PAD4 BAEE biochemical assay
Settings: human PAD4, BAEE substrate; 5 nM PAD4, 2 mM calcium chloride, 3 mM BAEE; geometric mean of multiple experiments
Method in brief: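 Ammonia release from BAEE deimination monitored by o-phthalaldehyde amine coupling (1 h, 25 °C) after EDTA stop. Final conditions: 5 nM tag-free recombinant human PAD4 (E. coli), 2 mM CaCl2, 3 mM BAEE, pH 7.6 MOPS with DTT; 30 min compound preincubation, then 2 h reaction at 25 °C.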

T1 sequence (Q9UM07 2-663): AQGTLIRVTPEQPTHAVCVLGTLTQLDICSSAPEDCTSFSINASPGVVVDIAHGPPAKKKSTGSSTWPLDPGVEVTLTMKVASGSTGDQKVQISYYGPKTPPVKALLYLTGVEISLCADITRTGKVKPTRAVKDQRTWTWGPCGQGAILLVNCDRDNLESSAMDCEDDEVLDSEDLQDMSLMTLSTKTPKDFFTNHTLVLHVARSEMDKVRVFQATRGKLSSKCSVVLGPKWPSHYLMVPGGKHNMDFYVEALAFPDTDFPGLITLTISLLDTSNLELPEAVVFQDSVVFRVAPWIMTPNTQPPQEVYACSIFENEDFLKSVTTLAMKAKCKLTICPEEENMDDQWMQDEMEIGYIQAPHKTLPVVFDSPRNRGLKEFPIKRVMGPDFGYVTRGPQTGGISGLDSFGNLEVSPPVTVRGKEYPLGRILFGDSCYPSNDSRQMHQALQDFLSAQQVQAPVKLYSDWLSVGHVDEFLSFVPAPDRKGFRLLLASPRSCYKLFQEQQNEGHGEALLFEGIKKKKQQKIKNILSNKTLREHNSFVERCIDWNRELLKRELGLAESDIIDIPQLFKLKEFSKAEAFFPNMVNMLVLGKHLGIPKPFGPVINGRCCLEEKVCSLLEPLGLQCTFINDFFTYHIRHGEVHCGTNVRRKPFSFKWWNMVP

Row | Molecule | pIC50
1 | COc1cc(C(=O)N2C[C@H]3CCN[C@H]3C2)cc2nc(-c3cc4ccc([C@@H](C)NC(=O)C56CC(F)(C5)C6)nc4n3CC3CC3)c(C)n12 [Example 21] | 5.69
2 | COc1cc(C(=O)N2[C@H]3CC[C@@H]2[C@H](N)C3)cc2nc(-c3cc4ccc([C@H](NC(=O)C5(C#N)CC5)C(F)(F)F)nc4n3CC3CC3)c(C)n12 [Example 191, ~{N}-[(1~{S})-1-[2-[7-[(1~{R},2~{R},4~{S})-2-amino-7-azabicyclo[2.2.1]heptane-7-carbonyl]-5-methoxy-3-methylimidazo [1,2-a]pyridin-2-yl]-1-(cyclopropylmethyl)pyrrolo [2,3-b]pyridin-6-yl]-2,2,2-trifluoroethyl]-1-cyanocyclopropane-1-carboxamide] | 6.15
3 | COc1cc(C(=O)N2[C@H]3CC[C@@H]2[C@H](N)C3)cc2nc(-c3cc4ccc([C@@H](C)NC(C)=O)nc4n3CC3CC3)c(C)n12 [Example 179, ~{N}-[(1~{R})-1-[2-[7-[(1~{R},2~{R},4~{S})-2-amino-7-azabicyclo[2.2.1]heptane-7-carbonyl]-5-methoxy-3-methylimidazo [1,2-a]pyridin-2-yl]-1-(cyclopropylmethyl)pyrrolo [2,3-b]pyridin-6-yl]ethyl] acetamide] | 7.07
4 | [(1~{R},2~{R},4~{S})-2- amino-7-azabicyclo [2.2.1]heptan-7-yl]-[2-[1- (cyclopropylmethyl)-6-(6- hydroxy-2-methylpyridin- 3-yl)pyrrolo[2,3-b] pyridin-2-yl]-5-methoxy-3- methylimidazo[1,2-a] pyridin-7-yl]methanone [Example 563] | 6.97
5 | COc1cc(C(=O)N2[C@H]3CC[C@@H]2[C@H](N)C3)cc2nc(-c3cc4ccc([C@@H](C)NC(=O)N(C)C(C)c5cccnc5)nc4n3CC3CC3)c(C)n12 (stereo partly drawn) [Example 221, 3-[(1~{R})-1-[2-[7-[(1~{R},2~{R},4~{S})-2-amino-7-azabicyclo[2.2.1]heptane-7-carbonyl]-5-methoxy-3-methylimidazo [1,2-a]pyridin-2-yl]-1-(cyclopropylmethyl)pyrrolo [2,3-b]pyridin-6-yl]ethyl]-1-methyl-1-(1-pyridin-3-ylethyl)urea] | 7.21
6 | COc1cc(C(=O)N2[C@H]3CC[C@@H]2[C@H](N)C3)cc2nc(-c3cc4ccc([C@@H](C)NC(=O)CC(C)(C)OC)nc4n3CC3CC3)c(C)n12 [Example 39, ~{N}-[(1~{R})-1-[2-[7-[(1~{R},2~{R},4~{S})-2-amino-7-azabicyclo[2.2.1]heptane-7-carbonyl]-5-methoxy-3-methylimidazo[1,2-a]pyridin-2-yl]-1-(cyclopropylmethyl)pyrrolo[2,3-b]pyridin-6-yl]ethyl]-3-methoxy-3-methylbutanamide] | 7.06
7 | COc1cc(C(=O)N2[C@H]3CC[C@@H]2[C@H](N)C3)cc2nc(-c3cc4ccc([C@@H](C)NC(=O)N5CC(F)(F)C(F)(F)C5)nc4n3CC3CC3)c(C)n12 [Example 208, ~{N}-[(1~{R})-1-[2-[7-[(1~{R},2~{R},4~{S})-2-amino-7-azabicyclo[2.2.1]heptane-7-carbonyl]-5-methoxy-3-methylimidazo [1,2-a]pyridin-2-yl]-1-(cyclopropylmethyl)pyrrolo [2,3-b]pyridin-6-yl]ethyl]-3,3,4,4-tetrafluoropyrrolidine-1-carboxamide] | 6.95
8 | COc1cc(C(=O)N2[C@H]3CC[C@@H]2[C@H](N)C3)cc2nc(-c3cc4ccc([C@@H](C)NC(=O)c5ccc(C)nc5)nc4n3CC3CC3)c(C)n12 [Example 49, ~{N}-[(1~{R})-1-[2-[7-[(1~{R},2~{R},4~{S})-2-amino-7-azabicyclo[2.2.1]heptane-7-carbonyl]-5-methoxy-3-methylimidazo [1,2-a]pyridin-2-yl]-1-(cyclopropylmethyl)pyrrolo[2,3-b]pyridin-6-yl]ethyl]-6-methylpyridine-3-carboxamide] | 7.65
9 | COc1cc(C(=O)N2CCC[C@@H](N)C2)cc2nc(-c3cc4ccc([C@@H](C)NC(=O)N5CCCC5)nc4n3CC3CC3)c(C)n12 [Example 252, ~{N}-[(1~{R})-1-[2-[7-[(3~{R})-3-aminopiperidine-1-carbonyl]-5-methoxy-3-methylimidazo [1,2-a]pyridin-2-yl]-1-(cyclopropylmethyl)pyrrolo [2,3-b]pyridin-6-yl]ethyl] pyrrolidine-1-carboxamide] | 7.01

The remaining lines, values ahead:

Row | pIC50 | Molecule
10 | 6.03 | COc1cc(C(=O)N2CCC[C@@H](N)C2)cc2nc(-c3cc4ccc(C5CC5C(=O)N(C)C)nc4n3CC3CC3)c(C)n12 (stereo partly drawn) [Example 533, 2-[2-[7-[(3~{R})-3-aminopiperidine-1-carbonyl]-5-methoxy-3-methylimidazo[1,2-a]pyridin-2-yl]-1-(cyclopropylmethyl)pyrrolo[2,3-b]pyridin-6-yl]-~{N},~{N}-dimethylcyclopropane-1-carboxamide]
11 | 7.06 | COc1cc(C(=O)N2[C@H]3CC[C@@H]2[C@H](N)C3)cc2nc(-c3cc4ccc([C@@H](C)NC(=O)N5CCC5)nc4n3CC34CC(C3)C4)c(C)n12 [Example 488]
12 | 6.71 | CCc1c(-c2cc3ccc(N(C(F)F)S(C)(=O)=O)nc3n2CC2CC2)nc2cc(C(=O)N3C[C@H](N)CC[C@@H]3C)ccn12 [Example 406, ~{N}-[2-[7-[(2~{S},5~{R})-5-amino-2-methylpiperidine-1-carbonyl]-3-ethylimidazo [1,2-a]pyridin-2-yl]-1-(cyclopropylmethyl)pyrrolo [2,3-b]pyridin-6-yl]-~{N}-(difluoromethyl) methanesulfonamide]
13 | 7.00 | COc1cc(C(=O)N2[C@H]3CC[C@@H]2[C@H](N)C3)cc2nc(-c3cc4ccc(N5CCOc6ccccc6S5(=O)=O)nc4n3CC3CC3)c(C)n12 [Example 460, [(1~{R},2~{R},4~{S})-2-amino-7-azabicyclo [2.2.1]heptan-7-yl]-[2-[1-(cyclopropylmethyl)-6-(1,1-dioxo-3,4-dihydro-5,1$l^6,2-benzoxathiazepin-2-yl)pyrrolo[2,3-b]pyridin-2-yl]-5-methoxy-3-methylimidazo[1,2-a]pyridin-7-yl]methanone]
14 | 5.16 | COc1cc(C(=O)N2CCC[C@@H](N)C2)cc2nc(-c3cc4ccc(O[C@@H](C)C(=O)N(C)C)nc4n3CC3CC3)c(C)n12 [Example 617, (2~{S})-2-[2-[7-[(3~{R})-3-aminopiperidine-1-carbonyl]-5-methoxy-3-methylimidazo[1,2-a]pyridin-2-yl]-1-(cyclopropylmethyl)pyrrolo [2,3-b]pyridin-6-yl]oxy-~{N},~{N}-dimethylpropanamide]
15 | 6.59 | CS(=O)(=O)N(c1ccc2cc(-c3nc4cc(C(=O)N5CC[C@@H](O)[C@@H](N)C5)ccn4c3C3CC3)n(CC3CC3)c2n1)C(F)F [Example 395, ~{N}-[2-[7-[(3~{S},4~{R})-3-amino-4-hydroxypiperidine-1-carbonyl]-3-cyclopropylimidazo[1,2-a]pyridin-2-yl]-1-(cyclopropylmethyl)pyrrolo [2,3-b]pyridin-6-yl]-~{N}-(difluoromethyl) methanesulfonamide]
16 | 6.40 | CNC(=O)[C@@H](C)Oc1ccc2cc(-c3nc4cc(C(=O)N5CCC[C@@H](N)C5)cc(OC)n4c3C)n(CC3CC3)c2n1 [Example 618]
17 | 6.74 | COc1cc(C(=O)N2CCC[C@@H](N)[C@H]2C)cc2nc(-c3cc4ccc(N(C5CC5)S(C)(=O)=O)nc4n3CC3CC3)c(C)n12 [Example 479, ~{N}-[2-[7-[(2~{R}, 3~{R})-3-amino-2-methylpiperidine-1-carbonyl]-5-methoxy-3-methylimidazo[1,2-a]pyridin-2-yl]-1-(cyclopropylmethyl)pyrrolo [2,3-b]pyridin-6-yl]-~{N}-cyclopropylmethane-sulfonamide]
18 | 6.64 | CCO[C@@H]1CCN(C(=O)c2cc(OC)n3c(C)c(-c4cc5ccc(N(C(F)F)S(C)(=O)=O)nc5n4CC4CC4)nc3c2)C[C@@H]1N [Example 340, ~{N}-[2-[7-[(3~{S}, 4~{R})-3-amino-4-ethoxypiperidine-1-carbonyl]-5-methoxy-3-methylimidazo [1,2-a]pyridin-2-yl]-1-(cyclopropylmethyl)pyrrolo [2,3-b]pyridin-6-yl]-~{N}-(difluoromethyl) methanesulfonamide]
19 | 6.78 | COc1cc(C(=O)N2CCC[C@@H](N)[C@H]2C)cc2nc(-c3cc4ccc(N(C)S(C)(=O)=O)nc4n3CC3CC3)c(C)n12 [Example 480, ~{N}-[2-[7-[(2~{R}, 3~{R})-3-amino-2-methylpiperidine-1-carbonyl]-5-methoxy-3-methylimidazo[1,2-a]pyridin-2-yl]-1-(cyclopropylmethyl)pyrrolo [2,3-b]pyridin-6-yl]-~{N}-methylmethanesulfonamide]
20 | 5.42 | C=CCN[C@@H]1CC[C@@H]2CC[C@H]1N2C(=O)c1cc(OC)n2c(C)c(-c3cc4ccc(N(C(F)F)S(C)(=O)=O)nc4n3CC3CC3)nc2c1 [Example 390, ~{N}-[1-(cyclopropylmethyl)-2-[5-methoxy-3-methyl-7-[(1~{R},2~{R},5~{R})-2-(prop-2-enylamino)-8-azabicyclo[3.2.1]octane-8-carbonyl]imidazo[1,2-a]pyridin-2-yl]pyrrolo [2,3-b]pyridin-6-yl]-~{N}-(difluoromethyl) methanesulfonamide]
21 | 6.71 | COc1cc(C(=O)N2[C@H]3CC[C@@H]2[C@H](N)C3)cc2nc(-c3cc4ccc(C5=CC(=O)NCC5)nc4n3CC3CC3)c(C)n12 [Example 561, 4-[2-[7-[(1~{R},2~{R}, 4~{S})-2-amino-7-azabicyclo[2.2.1]heptane-7-carbonyl]-5-methoxy-3-methylimidazo[1,2-a]pyridin-2-yl]-1-(cyclopropylmethyl)pyrrolo[2,3-b]pyridin-6-yl]-2,3-dihydro-1~{H}-pyridin-6-one]
